# Values quoted from earlier work in patent US7989007B2, “Weight loss composition” (Vincent James Enterprises, LLC, priority 2007, dated 2011).
# Details: subjects treated for hypertension; similar degree of hypertension control
structure (smiles),measurement,value
CC(C)NCC(O)COc1ccc(CC(N)=O)cc1 (stereo not shown) [atenolol],weight gain compared to patients treated with captopril,twice the weight gain
